Data: patent US10806735B2, “Use of neutrophil elastase inhibitors in liver disease” (pH Pharma Co., Ltd., priority 2018, dated 2020)
Like-named read-outs stand apart in the source and are kept apart here.

How the values were obtained:
HFD-fed mice = conditions: cited from earlier work
DIO mice [1] = assay: Example 2: terminal liver and epididymal fat weights in DIO mice; assay type: in vivo; conditions: 6 weeks; for epididymal fat weight (% body weight): vehicle 3.4±0.3; for liver weight (% body weight): vehicle 5.6±0.2
Method: Animals were terminated using CO2 inhalation and induction of pneumothorax. Four mice from each treatment group were sacrificed at 0.5 hr post dose and four were sacrificed at 4 hours post dose. […] Organ weights (liver, epididymal fat) were recorded. All data are represented as group mean±SEM. Data were analyzed using JMP (SAS software). All normalizations were calculated using terminal body weight. All assigned animals completed the study. […] Treatment effects compared to vehicle were determined using Oneway ANOVA (*, p<0.05) followed by Dunnett's test where appropriate.

DIO mice [2] = assay: Example 2: fasted serum insulin in DIO mice; assay type: in vivo; conditions: for fasted serum insulin on day 42: vehicle 8.2±1.5; for fasted serum insulin at baseline: baseline before treatment
Method: (§1) Male DIO (diet-induced obesity) mice (C57BLJ6NTac DIO MPF, n=35) were purchased from Taconic Biosciences (Rensselaer, N.Y.). DIO mice were prepared by feeding male C57BL16 mice a high fat diet (HFD, D12492; Research Diets, Inc., New Brunswick, N.J.) from 6-16 weeks of age. A twelve-hour light cycle was maintained throughout study duration. Room temperature was monitored daily and maintained at 22-25° C. DIO mice were housed individually and maintained on the HFD during a 7-day facility acclimation period and throughout the study period. All mice were administered vehicle (5% DMSO/3% ethanol/92% peanut oil) once daily during the acclimation period.
(§2) Compounds were administered once daily in the morning by oral gavage for 6 weeks. Dose volume was maintained at 5 ml/kg throughout the study.
(§3) Whole blood was obtained weekly from fed animals by tail clip for measurement of non-fasted blood glucose (StatStrip; Nova Biomedical, Waltham, Mass.) on day 7, day 14, day 21 and day 35 after first dosing. Body weight was recorded prior to glucose measurement at baseline and weekly thereafter. Oral glucose tolerance tests were performed in fasted mice at baseline (day −1), day 28 and day 42 thereafter. […] At the end of the 6-hour fasting period, mice were challenged with glucose (2 g/kg, 10 ml/kg, by oral gavage). Blood samples were obtained by tail clip at 0, 20, 40, 60, 90 and 120 minutes post-glucose load for assessment of blood glucose by StatStrip. Serum insulin was measured from time 0 blood samples of OGTT using the Mouse/Rat Insulin Kit (MSD #K152BZC; Meso Scale Diagnostics, Rockville, Md.).
(§4) All data are represented as group mean±SEM. Data were analyzed using JMP (SAS software). All normalizations were calculated using terminal body weight. […] Treatment effects compared to vehicle were determined using Oneway ANOVA (*, p<0.05) followed by Dunnett's test where appropriate.

[3] = Example 2: body weight of DIO mice, 6 weeks once daily oral dosing; assay type: in vivo; conditions: for terminal body weight: after 6 weeks, mean±SEM; for body weight at baseline: baseline before treatment
Method: as §1, §2, §3, §4

DIO mice [4] = assay: Example 2: blood glucose (fasted and fed) in DIO mice; assay type: in vivo; conditions: for fed glucose on day 35: vehicle 134.5±6.9; for fasted blood glucose at study start: baseline before treatment
Method: as §1, §2, §3, §4

[5] = Example 4: Phase 1 single-ascending dose study in healthy subjects, pharmacokinetics; assay type: in vivo, human; conditions: single doses 1 to 40 mg
DIO mice [6] = assay: Example 3: blood glucose in DIO mice; assay type: in vivo; conditions: for blood glucose at day 28: vehicle 143.0±7.1; for fasted blood glucose at study start: baseline before treatment
Method: Body weight was recorded prior to glucose measurement at baseline and weekly thereafter. […] All data are represented as group mean±SEM. Data were analyzed using Prism 7.0 (Graphpad software). All normalizations were calculated using terminal body weight. All assigned animals completed the study. […] Treatment effects compared to vehicle were determined using Oneway ANOVA (*, p<0.05; *, P<0.01) followed by Dunnett's test where appropriate.

[7] = Example 4: Phase 1 single-ascending dose study in healthy subjects, safety; conditions: single doses 1 to 40 mg
Source text: Following Screening, subjects received single doses of study drug and were monitored during an in-clinic period and an out-patient follow-up period. Subjects were confined to the study site for Study Days −2 through 7 to collect PK and safety assessments. Following discharge from the study site on Study Day 7, subjects returned to the study site on Study Days 14, 21, 28, and 35.

DIO mice [8] = assay: Example 3: oral glucose tolerance test (OGTT) in DIO mice; assay type: in vivo; conditions: for OGTT glucose AUC on day 28: vehicle 25.5±1.4; for OGTT glucose AUC at baseline: day −1 before treatment
Method: (§5) All data are represented as group mean±SEM. Data were analyzed using Prism 7.0 (Graphpad software). All normalizations were calculated using terminal body weight. All assigned animals completed the study. […] Treatment effects compared to vehicle were determined using Oneway ANOVA (*, p<0.05; *, P<0.01) followed by Dunnett's test where appropriate.

[9] = healthy subjects, cited from earlier work
[10] = Solubility and hygroscopicity of the drug substance; assay type: physicochemical
DIO mice [11] = assay: Example 3: fasted serum insulin in DIO mice; assay type: in vivo; conditions: for fasted serum insulin on day 28: vehicle 7.7±1.6; for fasted serum insulin at baseline: baseline before treatment
Method: as §5

[12] = Example 3: body weight of DIO mice, 4 weeks BID oral dosing; assay type: in vivo; conditions: for body weight growth rate / body weight at the end of the study: 4 weeks; for body weight growth rate: vehicle 9.2±2.0%; for body weight at the end of the study: vehicle 48.8±0.9; for body weight at baseline: baseline before treatment
Method: Body weight was recorded prior to glucose measurement at baseline and weekly thereafter. All data are represented as group mean±SEM. Data were analyzed using Prism 7.0 (Graphpad software). All normalizations were calculated using terminal body weight. All assigned animals completed the study. […] Treatment effects compared to vehicle were determined using Oneway ANOVA (*, p<0.05; *, P<0.01) followed by Dunnett's test where appropriate.

[13] = non-CF BE patients, 28 days, cited from earlier work
DIO mice [14] = assay: Example 2: oral glucose tolerance test (OGTT) in DIO mice; assay type: in vivo; conditions: for decrease of glucose AUC on day 42 compared to baseline: vehicle 12.6±10.3%; for OGTT glucose AUC on day 42: vehicle 27.8±1.2; for OGTT glucose AUC on day 28: vehicle 27.9±1.1; for OGTT glucose AUC at baseline: day −1 before treatment
Method: as §1, §2, §3, §4

CC(C)[C@@H]1C(=O)N(S(C)(=O)=O)[C@@H]2CCN(C(=O)/C=C/CN3CCCCC3)[C@H]21.Cl [GW311616A]
glucose tolerance (HFD-fed mice; HFD mice (Talukdar 2012)): improved glucose tolerance | insulin sensitivity in glucose clamp/tracer studies (HFD-fed mice; HFD mice (Talukdar 2012)): increased peripheral and hepatic insulin sensitivity | insulin resistance and body weight gain (HFD-fed mice; HFD-fed mice (Mansuy-Aubert 2013)): reversed insulin resistance and body weight gain

CN(CCOc1ccc(CC2SC(=O)NC2=O)cc1)c1ccccn1 (stereo not drawn) [rosiglitazone, reference compound]
epididymal fat weight (% body weight) (DIO mice [1]; 30 mg/kg/day PO): 3.7±0.2% | liver weight (% body weight) (DIO mice [1]; 30 mg/kg/day PO): 5.0±0.2% | fasted serum insulin on day 42 (DIO mice [2]; 30 mg/kg/day PO): 1.3 ± 0.1 ng/mL | fasted serum insulin at baseline (DIO mice [2]; group assigned to 30 mg/kg/day): 5.2 ± 1.1 ng/mL | terminal body weight ([3]; 30 mg/kg/day PO): 55.0 ± 1.4 g | body weight at baseline ([3]; group assigned to 30 mg/kg/day): 42.8 ± 1.0 g | decrease of fasting glucose compared to baseline (DIO mice [4]; 30 mg/kg/day PO, 6 weeks): 23% | fasting glucose after 6 weeks of treatment (DIO mice [4]; 30 mg/kg/day PO, 6 weeks): 125.8 ± 4.8 mg/dL | fed glucose on day 35 (DIO mice [4]; 30 mg/kg/day PO): 125.5 ± 4.5 mg/dL | fasted blood glucose at study start (DIO mice [4]; group assigned to 30 mg/kg/day): 164.0 ± 4.0 mg/dL

CC1=C(C#N)[C@@H](c2ccc(C#N)cc2S(C)(=O)=O)N(C)C(=O)N1c1cccc(C(F)(F)F)c1 [Compound 1, (4S)-4-[4-cyano-2-(methylsulfonyl)phenyl]-3,6-dimethyl-2-oxo-1-[3-(trifluoromethyl)phenyl]-1,2,3,4-tetrahydropyrimidine-5-carbonitrile]
exposure (AUC and Cmax) versus dose [5]: proportional increases in exposure (AUC and Cmax) with dose | blood glucose at day 28 (DIO mice [6]; 15 mg/kg BID PO): 151.9 ± 6.1 mg/dL | blood glucose at day 28 (DIO mice [6]; 30 mg/kg BID PO): 137.3 ± 4.1 mg/dL | fasted blood glucose at study start (DIO mice [6]; group assigned to 15 mg/kg BID): 185.1 ± 8.3 mg/dL | fasted blood glucose at study start (DIO mice [6]; group assigned to 30 mg/kg BID): 180.1 ± 7.0 mg/dL | AE rate compared with placebo subjects [7]: somewhat lower than that in the control (placebo) subjects | effects on laboratory safety evaluations (clinical chemistry and hematology) [7]: no clear effects | serious AEs, discontinuations, deaths [7]: no serious AEs and no discontinuations or deaths | occurrence of headache ([7]; 36 subjects on drug): only observed in one Compound 1 subject | OGTT glucose AUC on day 28 (DIO mice [8]; 15 mg/kg BID PO): 24.7±1.9 mg/dL·min×10^3 | OGTT glucose AUC on day 28 (DIO mice [8]; 30 mg/kg BID PO): 22.4±1.0 mg/dL·min×10^3 | OGTT glucose AUC at baseline (DIO mice [8]; group assigned to 15 mg/kg BID): 33.8±0.9 mg/dL-min×10^3 | OGTT glucose AUC at baseline (DIO mice [8]; group assigned to 30 mg/kg BID): 32.8±1.8 mg/dL-min×10^3 | safety and tolerability ([9]; single and repeated doses up to 1 mg for up to 14 days): safe and well tolerated | serious adverse events (SAEs) ([9]; three Phase 1 studies): no serious AEs (SAEs) were reported | study drug-induced laboratory or ECG abnormalities ([9]; three Phase 1 studies): No safety signals | solubility in acetone ([10]; acetone): soluble | solubility in ethanol ([10]; ethanol): very slightly soluble | hygroscopicity ([10]; normal storage conditions): not hygroscopic | solubility in water ([10]; water): practically insoluble | fasted serum insulin on day 28 (DIO mice [11]; 15 mg/kg BID PO): 5.8 ± 1.4 ng/mL | fasted serum insulin on day 28 (DIO mice [11]; 30 mg/kg BID PO): 4.0 ± 0.3 ng/mL | fasted serum insulin at baseline (DIO mice [11]; group assigned to 15 mg/kg BID): 7.0 ± 1.1 ng/mL | fasted serum insulin at baseline (DIO mice [11]; group assigned to 30 mg/kg BID): 4.9 ± 0.6 ng/mL | epididymal fat weight (% body weight) (DIO mice [1]; 3 mg/kg/day PO): 3.1±0.3% | liver weight (% body weight) (DIO mice [1]; 3 mg/kg/day PO): 6.8±0.3% | epididymal fat weight (% body weight) (DIO mice [1]; 15 mg/kg/day PO): 3.5±0.2% | liver weight (% body weight) (DIO mice [1]; 15 mg/kg/day PO): 6.4±0.2% | body weight growth rate ([12]; 15 mg/kg BID PO): 5.9±1.6% | body weight at the end of the study ([12]; 15 mg/kg BID PO): 47.5 ± 1.3 g | body weight growth rate ([12]; 30 mg/kg BID PO): 2.8±2.3% | body weight at the end of the study ([12]; 30 mg/kg BID PO): 46.0 ± 1.2 g | body weight at baseline ([12]; group assigned to 15 mg/kg BID): 44.8 ± 0.7 g | body weight at baseline ([12]; group assigned to 30 mg/kg BID): 44.8 ± 0.7 g | safety and tolerability ([13]; 1.0 mg oral IR tablet): generally safe and well tolerated | SAEs attributed to the drug ([13]; 1.0 mg oral): no SAEs were attributed by the investigator to the drug | study drug-induced laboratory parameter or ECG effects ([13]; 1.0 mg oral): No safety signals | fasted serum insulin on day 42 (DIO mice [2]; 3 mg/kg/day PO (low dose)): 11.8 ± 1.3 ng/mL | fasted serum insulin on day 42 (DIO mice [2]; 15 mg/kg/day PO (higher dose)): 5.9 ± 1.5 ng/mL | fasted serum insulin at baseline (DIO mice [2]; group assigned to 3 mg/kg/day): 3.5 ± 0.5 ng/mL | fasted serum insulin at baseline (DIO mice [2]; group assigned to 15 mg/kg/day): 5.4 ± 1.0 ng/mL | terminal body weight ([3]; 3 mg/kg/day PO): 49.8 ± 0.9 g | growth rate of body weight ([3]; 15 mg/kg/day PO, 6 weeks, vehicle 14±1.8%): 6.9±1.8% | terminal body weight ([3]; 15 mg/kg/day PO): 47.3 ± 1.1 g | body weight at baseline ([3]; group assigned to 3 mg/kg/day): 42.8 ± 1.1 g | body weight at baseline ([3]; group assigned to 15 mg/kg/day): 42.8 ± 1.0 g | fed glucose on day 35 (DIO mice [4]; 3 mg/kg/day PO): 128.3 ± 3.4 mg/dL | decrease of fasting glucose from baseline (DIO mice [4]; 15 mg/kg/day PO, 6 weeks): 11% | fed glucose on day 35 (DIO mice [4]; 15 mg/kg/day PO): 134.9 ± 4.7 mg/dL | fasted blood glucose at study start (DIO mice [4]; group assigned to 3 mg/kg/day): 160.3 ± 5.7 mg/dL | fasted blood glucose at study start (DIO mice [4]; group assigned to 15 mg/kg/day): 164.6 ± 7.3 mg/dL | decrease of glucose AUC on day 42 compared to baseline (DIO mice [14]; 3 mg/kg PO): 20.0±4.5% | OGTT glucose AUC on day 42 (DIO mice [14]; 3 mg/kg/day PO): 28.6±0.7 mg/dL/min×10^3 | OGTT glucose AUC on day 28 (DIO mice [14]; 3 mg/kg/day PO): 24.0±0.9 mg/dL·min×10^3 | decrease of glucose AUC on day 42 compared to baseline (DIO mice [14]; 15 mg/kg PO): −21.9±5.0% | OGTT glucose AUC on day 42 (DIO mice [14]; 15 mg/kg/day PO): 26.3±1.1 mg/dL/min×10^3 | OGTT glucose AUC on day 28 (DIO mice [14]; 15 mg/kg/day PO): 22.7±0.7 mg/dL·min×10^3 | OGTT glucose AUC at baseline (DIO mice [14]; group assigned to 3 mg/kg/day): 36.3±2.0 mg/dL·min×10^3 | OGTT glucose AUC at baseline (DIO mice [14]; group assigned to 15 mg/kg/day): 34.4±2.2 mg/dL·min×10^3
